Measured values reported in ChEMBL document CHEMBL1275501, “Plasmid-mediated quinolone resistance pump QepA2 in an Escherichia coli isolate from France” (2008).
In brackets after ≈: the same amount, converted by molar mass.

Assays:
Escherichia coli [1] = assay: Antimicrobial activity against azide-resistant Escherichia coli J53 harboring pCTX-M carrying blaCTX-M-15 and pQep plasmid carrying qepA2 gene by disk diffusion method; format: functional
Escherichia coli [2] = assay: Antimicrobial activity against Escherichia coli TOP10 by disk diffusion method; format: functional
Escherichia coli [3] = assay: Antimicrobial activity against Escherichia coli TOP10 harboring pQep plasmid carrying qepA2 gene by disk diffusion method; format: functional
Escherichia coli [4] = assay: Antimicrobial activity against azide-resistant Escherichia coli J53 by disk diffusion method; format: functional
Escherichia coli [5] = assay: Antimicrobial activity against azide-resistant Escherichia coli J53 harboring pCTX-M plasmid carrying blaCTX-M-15 gene by disk diffusion method; format: functional
Escherichia coli [6] = assay: Antimicrobial activity against Escherichia coli BicA expressing blaTEM-1, blaCTX-M-15 and qepA2 gene by disk diffusion method

Molecule	MIC (Escherichia coli [1])	MIC (Escherichia coli [2])	MIC (Escherichia coli [3])	MIC (Escherichia coli [4])	MIC (Escherichia coli [5])	MIC (Escherichia coli [6])
GENTAMICIN	0.12 µg/mL	0.25 µg/mL	0.25 µg/mL	0.12 µg/mL	0.12 µg/mL	–
CCn1cc(C(=O)O)c(=O)c2ccc(C)nc21 [NALIDIXIC ACID]	4 µg/mL (≈ 17.2 µM)	1 µg/mL (≈ 4.31 µM)	1.5 µg/mL (≈ 6.46 µM)	4 µg/mL (≈ 17.2 µM)	4 µg/mL (≈ 17.2 µM)	> 256 µg/mL
CC1COc2c(N3CCN(C)CC3)c(F)cc3c(=O)c(C(=O)O)cn1c23 (configuration not stated) [OFLOXACIN]	–	–	–	–	–	> 32 µg/mL
Cc1cc(NS(=O)(=O)c2ccc(N)cc2)no1 [SULFAMETHOXAZOLE]	> 256 µg/mL	16 µg/mL (≈ 63.2 µM)	> 256 µg/mL	16 µg/mL (≈ 63.2 µM)	16 µg/mL (≈ 63.2 µM)	> 256 µg/mL
CCn1cc(C(=O)O)c(=O)c2cc(F)c(N3CCNCC3)cc21 [NORFLOXACIN]	1 µg/mL (≈ 3.13 µM)	0.03 µg/mL (≈ 0.0939 µM)	0.5 µg/mL (≈ 1.57 µM)	0.06 µg/mL (≈ 0.188 µM)	0.06 µg/mL (≈ 0.188 µM)	> 256 µg/mL
C[C@H]1[C@H](NC(=O)/C(=N\OC(C)(C)C(=O)O)c2csc(N)n2)C(=O)N1S(=O)(=O)O [AZTREONAM]	16 µg/mL (≈ 36.7 µM)	–	–	–	16 µg/mL (≈ 36.7 µM)	> 32 µg/mL
NCC[C@H](O)C(=O)N[C@@H]1C[C@H](N)[C@@H](O[C@H]2O[C@H](CN)[C@@H](O)[C@H](O)[C@H]2O)[C@H](O)[C@H]1O[C@H]1O[C@H](CO)[C@@H](O)[C@H](N)[C@H]1O [AMIKACIN]	1 µg/mL (≈ 1.71 µM)	1 µg/mL (≈ 1.71 µM)	1 µg/mL (≈ 1.71 µM)	1 µg/mL (≈ 1.71 µM)	1 µg/mL (≈ 1.71 µM)	2 µg/mL (≈ 3.42 µM)
C[C@@H](O)[C@H]1C(=O)N2C(C(=O)O)=C(SCCNC=N)C[C@H]12 [IMIPENEM ANHYDROUS]	0.25 µg/mL (≈ 0.835 µM)	–	–	0.06 µg/mL (≈ 0.2 µM)	0.25 µg/mL (≈ 0.835 µM)	0.5 µg/mL (≈ 1.67 µM)
CCN1CCN(c2cc3c(cc2F)c(=O)c(C(=O)O)cn3C2CC2)CC1 [ENROFLOXACIN]	0.06 µg/mL (≈ 0.167 µM)	0.003 µg/mL (≈ 0.00835 µM)	0.008 µg/mL (≈ 0.0223 µM)	0.03 µg/mL (≈ 0.0835 µM)	0.06 µg/mL (≈ 0.167 µM)	> 32 µg/mL
CC1(C)S[C@@H]2[C@H](NC(=O)[C@H](C(=O)O)c3ccsc3)C(=O)N2[C@H]1C(=O)O [TICARCILLIN]	> 256 µg/mL	4 µg/mL (≈ 10.4 µM)	> 256 µg/mL	4 µg/mL (≈ 10.4 µM)	> 256 µg/mL	> 256 µg/mL
COc1c(N2CCNC(C)C2)c(F)cc2c(=O)c(C(=O)O)cn(C3CC3)c12 (configuration not stated) [GATIFLOXACIN]	0.12 µg/mL (≈ 0.32 µM)	0.003 µg/mL (≈ 0.00799 µM)	0.01 µg/mL (≈ 0.0266 µM)	0.01 µg/mL (≈ 0.0266 µM)	0.06 µg/mL (≈ 0.16 µM)	> 32 µg/mL
CC(=O)OCC1=C(C(=O)O)N2C(=O)[C@@H](NC(=O)Cc3cccs3)[C@H]2SC1 [CEPHALOTHIN]	> 256 µg/mL	4 µg/mL (≈ 10.1 µM)	8 µg/mL (≈ 20.2 µM)	8 µg/mL (≈ 20.2 µM)	> 256 µg/mL	> 256 µg/mL
C[C@H]1COc2c(N3CCN(C)CC3)c(F)cc3c(=O)c(C(=O)O)cn1c23.C[C@H]1COc2c(N3CCN(C)CC3)c(F)cc3c(=O)c(C(=O)O)cn1c23.O [LEVOFLOXACIN]	–	–	–	–	–	> 32 µg/mL
